Here are results for 77 compounds from paper PMC12040169 (PLOS Biology, 2025).

The data set is described as follows: in vitro. Particulars: human, hela cells, % viability.
For `COc1ccc(NC(=O)NS(=O)(=O)c2sc3ccc(Cl)cc3c2C)cc1OC` [CBK156300], the viability at 28.5 h, 10 µM is 91.3%.

With `O=S(=O)(Nc1ccc2[nH]ccc2c1)c1cc(C(F)(F)F)cc(C(F)(F)F)c1` [CBK156330], the viability at 28.5 h, 10 µM turned out to be 102%.

As to `O=S(=O)(c1ccccc1)n1cc2c3c(cccc31)CN(CCO)C2` [CBK156333T], the viability at 28.5 h, 10 µM was 106%.

`CCOC(=O)N1CCC(NC(=O)N2CCCC(CO)C2)CC1` (centres unmarked) [CBK156345]: the viability at 28.5 h, 10 µM worked out at 90.6%.

For `CSCCCNC(=O)N(CCC#N)C1CCCCC1` [CBK156348], the viability at 28.5 h, 10 µM was determined as 104%.

Take `N#CCCN(C(=O)NCc1ccc(Cl)c(Cl)c1)C1CCCCC1` [CBK156349]: the viability at 28.5 h, 10 µM is 85.5%.

Turning to `N#CCCN(C(=O)NCc1cccc(C(F)(F)F)c1)C1CCCCC1` [CBK156350], the viability at 28.5 h, 10 µM was determined as 96.8%.

Take `N#CCCN(C(=O)NCc1ccc2c(c1)OCO2)C1CCCCC1` [CBK156351]: the viability at 28.5 h, 10 µM was found to be 98.7%.

Regarding `COCCNC(=O)N(CCC#N)C1CCCCC1` [CBK156358], the viability at 28.5 h, 10 µM is 97.3%.

Take `COc1ccc(CCNC(=O)N(CCC#N)C2CCCCC2)cc1OC` [CBK156363]: the viability at 28.5 h, 10 µM turned out to be 108%.

In the case of `N#CCCN(C(=O)Nc1ccc2c(c1)OCCO2)C1CCCCC1` [CBK156364], the viability at 28.5 h, 10 µM amounted to 92.3%.

For `N#CCCN(C(=O)Nc1ccc(Cl)cc1)C1CCCCC1` [CBK156365], the viability at 28.5 h, 10 µM is 89.1%.

Regarding `N#CCCN(C(=O)NCc1ccc(F)cc1)C1CCCCC1` [CBK156372], the viability at 28.5 h, 10 µM stood at 86.5%.

`CC(C)CCNC(=O)N(CCC#N)C1CCCCC1` [CBK156378]: the viability at 28.5 h, 10 µM turned out to be 91.6%.

On to `N#CCCN(C(=O)NCCCN1CCCC1=O)C1CCCCC1` [CBK156379], for which the viability at 28.5 h, 10 µM came out at 85.5%.

Consider `CCOC(=O)N1CCC(NC(=O)N(CCC#N)C2CCCCC2)CC1` [CBK156384], for which the viability at 28.5 h, 10 µM came out at 90.9%.

As for `O=C(NCc1cccc(C(F)(F)F)c1)N1CCN(c2ccc(F)cc2)CC1` [CBK156390], the viability at 28.5 h, 10 µM came to 89.4%.

In the case of `Cc1cnc(CNC(=O)N2CCN(c3ccc(F)cc3)CC2)cn1` [CBK156392], the viability at 28.5 h, 10 µM is 93.7%.

`O=C(NCCc1c[nH]cn1)N1CCN(c2ccc(F)cc2)CC1` [CBK156394]: the viability at 28.5 h, 10 µM worked out at 85.1%.

Consider `O=C(Nc1cccnc1)N1CCN(c2ccc(F)cc2)CC1` [CBK156427], for which the viability at 28.5 h, 10 µM turned out to be 92.7%.

With `CCOC(=O)N1CCC(NC(=O)N2CCN(c3ccc(F)cc3)CC2)CC1` [CBK156429], the viability at 28.5 h, 10 µM was 106%.

In the case of `CN1CCN(CCCNC(=O)N2CCN(c3cc(C(F)(F)F)ccn3)CC2)CC1` [CBK156431], the viability at 28.5 h, 10 µM was found to be 93.7%.

As for `O=C(NCC1COc2ccccc2O1)N1CCN(c2cc(C(F)(F)F)ccn2)CC1` (centres unmarked) [CBK156432], the viability at 28.5 h, 10 µM came out at 88.2%.

For the compound `O=C(NCc1ccc(Cl)c(Cl)c1)N1CCN(c2cc(C(F)(F)F)ccn2)CC1` [CBK156434], the viability at 28.5 h, 10 µM was 94.3%.

As for `O=C1CC2(CCN(C(=O)c3ccncc3)CC2)Oc2c(Br)cc(Br)cc21` [CBK156437], the viability at 28.5 h, 10 µM is 95.7%.

As for `COc1ccc2c(c1)C(=O)CC1(CCN(C(=O)/C=C/c3ccc(C)cc3)CC1)O2` [CBK156438], the viability at 28.5 h, 10 µM was found to be 98.3%.

For the compound `Cc1ccc(/C=C/C(=O)N2CCC3(CC2)CC(=O)c2cc(Cl)ccc2O3)cc1` [CBK156439], the viability at 28.5 h, 10 µM was 95.1%.

`Cc1c(OCc2ccccc2)ccc2c1OC1(CCN(C(=O)c3ccccn3)CC1)CC2=O` [CBK156441]: the viability at 28.5 h, 10 µM was 106%.

Regarding `O=C1CC2(CCN(C(=O)c3ccoc3)CC2)Oc2ccc3ccccc3c21` [CBK156444], the viability at 28.5 h, 10 µM was 91%.

`Cc1c(OCc2ccccc2)ccc2c1OC1(CCN(C(=O)c3ccsc3)CC1)CC2=O` [CBK156445]: the viability at 28.5 h, 10 µM came to 109%.

As to `O=C1CC2(CCN(C(=O)c3ccccc3F)CC2)Oc2c(Cl)cc(Cl)cc21` [CBK156453], the viability at 28.5 h, 10 µM was found to be 91.8%.

On to `CC(=O)c1ccc(C(=O)N2CCC3(CC2)CC(=O)c2ccc4ccccc4c2O3)cc1` [CBK156458], for which the viability at 28.5 h, 10 µM was 104%.

In the case of `COc1cc(OC)c2c(c1)OC1(CCN(C(=O)C3CCCO3)CC1)CC2=O` (centres unmarked) [CBK156476], the viability at 28.5 h, 10 µM was 93.3%.

`CC(=O)CCCCC(=O)N1CCC2(CC1)CC(=O)c1cc(C)c(C)cc1O2` [CBK156497]: the viability at 28.5 h, 10 µM was 106%.

For `COc1cc(OC)c2c(c1)OC1(CCN(C(=O)c3cnc(C)cn3)CC1)CC2=O` [CBK156503], the viability at 28.5 h, 10 µM amounted to 105%.

As for `Cc1noc(C)c1C(=O)N1CCC2(CC1)CC(=O)c1cc(Br)ccc1O2` [CBK156508], the viability at 28.5 h, 10 µM was 90%.

In the case of `Cc1cc2c(cc1Cl)C(=O)CC1(CCN(C(=O)C3CC(=O)OC3(C)C)CC1)O2` (centres unmarked) [CBK156514], the viability at 28.5 h, 10 µM amounted to 94.8%.

Consider `CN1CCC2(CC1)CC(=O)c1cc(-c3ccc(C(=O)N(C)CCC#N)cc3)ccc1O2` [CBK156518], for which the viability at 28.5 h, 10 µM is 89%.

Turning to `Cc1ccc(NC(=O)CCC(=O)N2CCC3(CC2)CC(=O)c2ccccc2O3)cc1` [CBK156524], the viability at 28.5 h, 10 µM was 94.1%.

For the compound `O=C(CCC(=O)N1CCC2(CC1)CC(=O)c1ccccc1O2)NCC1CCCO1` (centres unmarked) [CBK156525], the viability at 28.5 h, 10 µM was determined as 86.2%.

For `O=C(COc1ccc(F)cc1)N1CCC2(CCNC2)C1` (centres unmarked) [CBK156691C], the viability at 28.5 h, 10 µM worked out at 92.5%.

Take `O=C(C(c1ccccc1)c1ccccc1)N1CCC2(CCNC2)C1` (centres unmarked) [CBK156729C]: the viability at 28.5 h, 10 µM stood at 92.3%.

As for `Cc1nc(S(=O)(=O)Nc2ccc3[nH]ccc3c2)cn1C` [CBK156800], the viability at 28.5 h, 10 µM was 68.3%.

Regarding `COC(=O)c1ccc2c(c1)C(=O)N(c1ccc(C(=O)OCC(C)C)cc1)C2=O` [CBK156802], the viability at 28.5 h, 10 µM came out at 92.1%.

With `O=S(=O)(Nc1ccc2[nH]ccc2c1)c1cccnc1` [CBK156811], the viability at 28.5 h, 10 µM is 71%.

On to `COc1ccc(S(=O)(=O)N2CCN(C(=O)c3ccc(C(C)(C)C)cc3)CC2)cc1` [CBK157251], for which the viability at 28.5 h, 10 µM amounted to 111%.

As to `CCCCc1ccc(NC(=S)NC(=O)c2ccc(OC)c(OC)c2)cc1` [CBK157691], the viability at 28.5 h, 10 µM is 100%.

Regarding `CCN(CC)C(=O)C1CCN(S(=O)(=O)c2ccc(C)cc2)CC1` [CBK157834], the viability at 28.5 h, 10 µM is 98.7%.

Regarding `CCNC(=O)c1ccc(-c2ccc(C(=O)N(C)C)cc2)nc1` [CBK158361], the viability at 28.5 h, 10 µM is 91.7%.

On to `Cc1ccc(CNC(=O)Cc2ccc(-c3ccc(CN4CCC(C)CC4)cc3)nc2)cc1F` [CBK158402], for which the viability at 28.5 h, 10 µM came out at 97.4%.

With `Cc1onc(-c2ccccc2)c1C(=O)N1CCN(CCN2CCCC2)CC1` [CBK158558], the viability at 28.5 h, 10 µM was found to be 98.6%.

`CSCCCNC(=O)c1cc(-c2ccc(C(=O)N3CCOCC3)cc2)cnc1N` [CBK158568]: the viability at 28.5 h, 10 µM was 95.5%.

On to `CN1CCC(N2CCN(C(=O)c3cncc(-c4ccc(C(=O)N5CCOCC5)cc4)c3)CC2)CC1` [CBK158600], for which the viability at 28.5 h, 10 µM stood at 115%.

Consider `O=C(NCc1cccs1)c1cncc(-c2ccc(C(=O)N3CCOCC3)cc2)c1` [CBK158617], for which the viability at 28.5 h, 10 µM came out at 87.4%.

Regarding `CN(C)CCNC(=O)c1cncc(-c2ccc(C(=O)N3CCOCC3)cc2)c1` [CBK158619], the viability at 28.5 h, 10 µM came to 95.6%.

Take `NS(=O)(=O)c1ccc(CNC(=O)c2cncc(-c3ccc(C(=O)N4CCOCC4)cc3)c2)cc1` [CBK158641]: the viability at 28.5 h, 10 µM was found to be 100%.

Take `CS(=O)(=O)c1ccc(-c2ccc3c(c2)COC(C2CCN(C(=O)c4ccccc4O)CC2)O3)cc1` (centres unmarked) [CBK158682]: the viability at 28.5 h, 10 µM stood at 85.3%.

Turning to `CCOC(=O)C1CCN(C(=O)c2c(-c3ccccc3)noc2C)CC1` [CBK158704], the viability at 28.5 h, 10 µM amounted to 86.3%.

Consider `CCN(CC)C(=O)CN(CCc1ccc(OC)c(OC)c1)C(=O)NCCCSC` [CBK158725], for which the viability at 28.5 h, 10 µM is 94.8%.

Regarding `CCN(CC)C(=O)CN(CCc1ccc(OC)c(OC)c1)C(=O)NCCc1c[nH]c2ccccc12` [CBK158741], the viability at 28.5 h, 10 µM was found to be 91.1%.

On to `CCN(CC)C(=O)CN(CCc1ccc(OC)c(OC)c1)C(=O)NCc1c(Cl)cccc1Cl` [CBK158743], for which the viability at 28.5 h, 10 µM was 89.9%.

Turning to `COc1ccc(CCN(Cc2ccc(Cl)c(Cl)c2)C(=O)NCCCSC)cc1OC` [CBK158758], the viability at 28.5 h, 10 µM worked out at 91.1%.

Consider `COc1ccc(CCN(Cc2ccc(Cl)c(Cl)c2)C(=O)NCc2ccc(C#N)cc2)cc1OC` [CBK158771], for which the viability at 28.5 h, 10 µM is 100%.

For `CC(C)c1noc(N2CCC(Oc3ccc(-c4ccc(S(C)(=O)=O)cc4)cn3)CC2)n1` [CBK158821], the viability at 28.5 h, 10 µM is 84.6%.

On to `CC(=O)Nc1ccc(-c2ccc(C(=O)N3CCN(C4CCN(C)CC4)CC3)cn2)cc1` [CBK158824], for which the viability at 28.5 h, 10 µM is 96.7%.

With `CC(=O)Nc1ccc(-c2ccc(C(=O)NCc3ccc(OC(F)(F)F)cc3)cn2)cc1` [CBK158830], the viability at 28.5 h, 10 µM turned out to be 98.6%.

Regarding `CC(=O)Nc1ccc(-c2ccc(C(=O)NCC3COc4ccccc4O3)cn2)cc1` (centres unmarked) [CBK158832], the viability at 28.5 h, 10 µM stood at 99.3%.

On to `CC(=O)Nc1ccc(-c2ccc(C(=O)NCCc3ccc(O)cc3)cn2)cc1` [CBK158840], for which the viability at 28.5 h, 10 µM is 105%.

As to `CN1CCC(N2CCN(C(=O)c3ccc(-c4ccc(S(C)(=O)=O)cc4)nc3)CC2)CC1` [CBK158862], the viability at 28.5 h, 10 µM came to 91.6%.

As to `CS(=O)(=O)c1ccc(-c2ccc(C(=O)NCc3cccc(C(F)(F)F)c3)cn2)cc1` [CBK158874], the viability at 28.5 h, 10 µM came out at 91.4%.

Turning to `CCNC(=O)c1ccc(-c2ccc(S(C)(=O)=O)cc2)nc1` [CBK158882], the viability at 28.5 h, 10 µM was determined as 91.9%.

On to `CS(=O)(=O)c1ccc(-c2ccc(C(=O)NCc3ccccc3)cn2)cc1` [CBK158885], for which the viability at 28.5 h, 10 µM amounted to 89.2%.

On to `Cc1cc(CNC(=O)N2CCN(CCc3ccccc3)CC2)no1` [CBK158898], for which the viability at 28.5 h, 10 µM is 92.7%.

Turning to `O=C(NCc1cccc(C(F)(F)F)c1)N1CCN(CCc2ccccc2)CC1` [CBK158902], the viability at 28.5 h, 10 µM is 90.1%.

Turning to `O=C(NC(c1ccccc1)c1ccccc1)N1CCN(CCc2ccccc2)CC1` [CBK158905], the viability at 28.5 h, 10 µM stood at 101%.

For the compound `O=C(NCc1cccnc1)N1CCN(CCc2ccccc2)CC1` [CBK158906], the viability at 28.5 h, 10 µM came to 93.7%.

In the case of `COCCNC(=O)N1CCN(CCc2ccccc2)CC1` [CBK158909], the viability at 28.5 h, 10 µM was determined as 97.3%.

For orientation: viability means a read-out of living cells in per cent, often relative to untreated cells.
